The kinase profiling compilation of Christmann-Franck et al. (2016)
Values belong to the compound of their own block, whether it stands above or below them.

How the values were obtained:
Assay in all cases: radiometric filter-binding kinase assay
[1] = biological target: MAP3K9 (human) (UniProt P80192); details: compound 1.0 µM
[2] = biological target: CLK2 (human) (UniProt P49760); details: compound 1.0 µM
[3] = biological target: CaMK1 (human) (UniProt Q14012)
[4] = biological target: GSK3B (human) (UniProt P49841)
[5] = biological target: CHEK1 (human) (UniProt O14757)
[6] = biological target: ERBB4 (human) (UniProt Q15303); details: compound 1.0 µM
[7] = biological target: DYRK3 (human) (UniProt O43781)
[8] = biological target: EPHB2 (human) (UniProt P29323); details: compound 1.0 µM
[9] = biological target: PRKCG (human) (UniProt P05129); details: compound 1.0 µM
[10] = biological target: EPHA2 (human) (UniProt P29317)
[11] = biological target: MAPKAPK2 (human) (UniProt P49137)
[12] = system: LCK (mouse); details: accession and sequence are those of the human protein
[13] = biological target: FLT1 (human) (UniProt P17948); details: compound 1.0 µM
[14] = biological target: MAPKAPK5 (human) (UniProt Q8IW41)
[15] = biological target: PRKCA (human) (UniProt P17252)
[16] = biological target: HIPK1 (human) (UniProt Q86Z02); details: compound 1.0 µM
[17] = biological target: AURKB (human) (UniProt Q96GD4)
[18] = biological target: SRC (human) (UniProt P12931)
[19] = biological target: PRKCZ (human) (UniProt Q05513)
[20] = biological target: DAPK1 (human) (UniProt P53355); details: compound 1.0 µM
[21] = biological target: MAP3K7 TAB1 (human) (UniProt Q15750+O43318); details: compound 1.0 µM
[22] = biological target: NTRK1 (human) (UniProt P04629); details: compound 1.0 µM
[23] = biological target: BTK (human) (UniProt Q06187); details: compound 1.0 µM
[24] = biological target: IGF1R (human) (UniProt P08069); details: compound 1.0 µM
[25] = biological target: TTK (human) (UniProt P33981); details: compound 1.0 µM
[26] = biological target: PAK4 (human) (UniProt O96013)
[27] = biological target: STK3 (human) (UniProt Q13188)
[28] = biological target: CHEK2 (human) (UniProt O96017)
[29] = biological target: MYLK (human) (UniProt Q15746)
[30] = biological target: MARK3 (human) (UniProt P27448)
[31] = biological target: EPHB3 (human) (UniProt P54753); details: compound 1.0 µM
[32] = biological target: FGFR1 (human) (UniProt P11362)
[33] = biological target: PRKAA1 PRKAB2 PRKAG1 (human) (UniProt O43741+Q13131+P54619)
[34] = biological target: MKNK1 (human) (UniProt Q9BUB5)
[35] = biological target: RPS6KA1 KD1 KD2 (human) (UniProt Q15418)
[36] = biological target: EEF2K (human) (UniProt O00418)
[37] = biological target: DYRK2 (human) (UniProt Q92630)
[38] = biological target: MST4 (human) (UniProt Q9P289)
[39] = biological target: MAPKAPK3 (human) (UniProt Q16644); details: compound 1.0 µM
[40] = biological target: IKBKB (human) (UniProt O14920)

Sequence of CHEK2 (human) (O96017 whole entry, looked up): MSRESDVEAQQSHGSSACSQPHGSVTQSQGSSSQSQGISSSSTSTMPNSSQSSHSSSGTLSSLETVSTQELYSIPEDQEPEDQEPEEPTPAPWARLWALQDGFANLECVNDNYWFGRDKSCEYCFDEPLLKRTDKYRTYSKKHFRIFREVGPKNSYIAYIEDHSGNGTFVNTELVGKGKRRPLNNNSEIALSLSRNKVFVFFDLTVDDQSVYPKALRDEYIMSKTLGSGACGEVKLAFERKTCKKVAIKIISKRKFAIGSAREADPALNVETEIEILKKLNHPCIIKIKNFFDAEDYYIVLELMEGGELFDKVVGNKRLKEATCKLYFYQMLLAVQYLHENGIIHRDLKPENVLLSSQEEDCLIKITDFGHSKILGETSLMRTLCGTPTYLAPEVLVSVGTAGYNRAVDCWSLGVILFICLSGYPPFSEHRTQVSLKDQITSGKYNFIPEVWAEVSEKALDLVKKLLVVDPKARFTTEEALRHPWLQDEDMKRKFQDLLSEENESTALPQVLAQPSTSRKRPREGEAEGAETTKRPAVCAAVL
Sequence of MST4 (human) (Q9P289 whole entry, looked up): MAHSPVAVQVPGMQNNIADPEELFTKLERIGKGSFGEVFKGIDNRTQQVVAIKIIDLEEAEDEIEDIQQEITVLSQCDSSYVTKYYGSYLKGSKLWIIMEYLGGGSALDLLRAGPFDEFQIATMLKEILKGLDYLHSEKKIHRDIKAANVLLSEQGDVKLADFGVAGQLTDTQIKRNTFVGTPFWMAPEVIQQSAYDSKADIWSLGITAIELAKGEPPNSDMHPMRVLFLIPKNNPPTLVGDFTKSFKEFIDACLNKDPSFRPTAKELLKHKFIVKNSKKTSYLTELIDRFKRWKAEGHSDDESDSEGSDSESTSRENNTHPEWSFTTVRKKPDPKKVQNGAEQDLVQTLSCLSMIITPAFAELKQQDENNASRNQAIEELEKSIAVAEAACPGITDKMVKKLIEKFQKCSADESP
Sequence of MARK3 (human) (P27448 whole entry, looked up): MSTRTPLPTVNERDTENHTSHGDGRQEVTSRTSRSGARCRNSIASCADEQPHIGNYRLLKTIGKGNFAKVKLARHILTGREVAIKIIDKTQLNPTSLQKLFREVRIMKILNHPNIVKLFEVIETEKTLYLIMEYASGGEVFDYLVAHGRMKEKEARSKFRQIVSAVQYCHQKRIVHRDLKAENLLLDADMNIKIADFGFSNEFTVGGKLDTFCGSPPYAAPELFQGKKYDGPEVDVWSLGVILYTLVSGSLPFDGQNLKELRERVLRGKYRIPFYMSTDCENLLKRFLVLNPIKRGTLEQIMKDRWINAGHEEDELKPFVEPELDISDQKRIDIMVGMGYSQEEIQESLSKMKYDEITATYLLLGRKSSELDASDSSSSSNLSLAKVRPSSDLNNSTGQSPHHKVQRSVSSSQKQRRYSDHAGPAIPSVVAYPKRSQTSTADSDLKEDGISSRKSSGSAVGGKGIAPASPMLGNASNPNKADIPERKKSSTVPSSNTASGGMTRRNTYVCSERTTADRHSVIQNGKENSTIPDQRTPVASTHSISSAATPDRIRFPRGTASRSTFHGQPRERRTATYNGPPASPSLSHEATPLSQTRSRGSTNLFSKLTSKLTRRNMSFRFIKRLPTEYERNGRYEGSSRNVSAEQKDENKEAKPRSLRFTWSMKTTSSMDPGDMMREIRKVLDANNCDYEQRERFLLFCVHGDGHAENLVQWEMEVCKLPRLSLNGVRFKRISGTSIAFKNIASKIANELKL
Sequence of MAPKAPK5 (human) (Q8IW41 whole entry, looked up): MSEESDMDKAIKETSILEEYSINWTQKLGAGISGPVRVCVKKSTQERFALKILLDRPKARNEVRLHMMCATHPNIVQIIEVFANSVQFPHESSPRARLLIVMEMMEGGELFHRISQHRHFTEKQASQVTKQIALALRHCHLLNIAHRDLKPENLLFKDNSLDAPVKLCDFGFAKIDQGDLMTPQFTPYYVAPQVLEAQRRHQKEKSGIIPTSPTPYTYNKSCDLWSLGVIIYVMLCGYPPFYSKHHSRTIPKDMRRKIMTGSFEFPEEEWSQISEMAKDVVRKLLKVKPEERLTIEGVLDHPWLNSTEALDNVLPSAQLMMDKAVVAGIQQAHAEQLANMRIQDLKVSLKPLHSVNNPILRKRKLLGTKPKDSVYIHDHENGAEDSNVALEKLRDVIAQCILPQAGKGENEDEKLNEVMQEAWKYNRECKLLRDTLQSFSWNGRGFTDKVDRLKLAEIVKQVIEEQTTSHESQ
Sequence of STK3 (human) (Q13188 whole entry, looked up): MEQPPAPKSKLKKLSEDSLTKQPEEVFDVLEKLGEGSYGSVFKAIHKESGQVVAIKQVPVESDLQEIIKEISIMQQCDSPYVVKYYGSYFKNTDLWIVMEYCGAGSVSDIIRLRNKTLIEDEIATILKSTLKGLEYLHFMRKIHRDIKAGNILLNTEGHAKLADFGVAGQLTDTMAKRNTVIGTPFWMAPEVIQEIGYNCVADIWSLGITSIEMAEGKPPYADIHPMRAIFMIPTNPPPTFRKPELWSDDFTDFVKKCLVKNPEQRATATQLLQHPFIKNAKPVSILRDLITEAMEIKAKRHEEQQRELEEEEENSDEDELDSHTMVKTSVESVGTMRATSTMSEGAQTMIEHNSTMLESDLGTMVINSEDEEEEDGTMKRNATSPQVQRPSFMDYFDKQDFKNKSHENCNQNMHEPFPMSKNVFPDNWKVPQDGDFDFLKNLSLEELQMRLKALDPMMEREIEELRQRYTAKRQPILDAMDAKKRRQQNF
Sequence of CaMK1 (human) (Q14012 whole entry, looked up): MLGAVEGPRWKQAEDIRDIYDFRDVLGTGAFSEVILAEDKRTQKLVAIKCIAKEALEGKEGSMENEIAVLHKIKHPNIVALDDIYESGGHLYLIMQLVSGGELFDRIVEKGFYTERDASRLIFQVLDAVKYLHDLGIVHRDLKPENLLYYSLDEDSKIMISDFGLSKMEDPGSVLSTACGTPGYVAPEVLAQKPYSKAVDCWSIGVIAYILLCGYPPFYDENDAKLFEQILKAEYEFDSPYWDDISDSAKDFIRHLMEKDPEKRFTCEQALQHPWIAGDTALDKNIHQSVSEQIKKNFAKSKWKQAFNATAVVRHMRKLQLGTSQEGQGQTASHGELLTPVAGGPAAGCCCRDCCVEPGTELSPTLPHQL
Sequence of FGFR1 (human) (P11362 whole entry, looked up): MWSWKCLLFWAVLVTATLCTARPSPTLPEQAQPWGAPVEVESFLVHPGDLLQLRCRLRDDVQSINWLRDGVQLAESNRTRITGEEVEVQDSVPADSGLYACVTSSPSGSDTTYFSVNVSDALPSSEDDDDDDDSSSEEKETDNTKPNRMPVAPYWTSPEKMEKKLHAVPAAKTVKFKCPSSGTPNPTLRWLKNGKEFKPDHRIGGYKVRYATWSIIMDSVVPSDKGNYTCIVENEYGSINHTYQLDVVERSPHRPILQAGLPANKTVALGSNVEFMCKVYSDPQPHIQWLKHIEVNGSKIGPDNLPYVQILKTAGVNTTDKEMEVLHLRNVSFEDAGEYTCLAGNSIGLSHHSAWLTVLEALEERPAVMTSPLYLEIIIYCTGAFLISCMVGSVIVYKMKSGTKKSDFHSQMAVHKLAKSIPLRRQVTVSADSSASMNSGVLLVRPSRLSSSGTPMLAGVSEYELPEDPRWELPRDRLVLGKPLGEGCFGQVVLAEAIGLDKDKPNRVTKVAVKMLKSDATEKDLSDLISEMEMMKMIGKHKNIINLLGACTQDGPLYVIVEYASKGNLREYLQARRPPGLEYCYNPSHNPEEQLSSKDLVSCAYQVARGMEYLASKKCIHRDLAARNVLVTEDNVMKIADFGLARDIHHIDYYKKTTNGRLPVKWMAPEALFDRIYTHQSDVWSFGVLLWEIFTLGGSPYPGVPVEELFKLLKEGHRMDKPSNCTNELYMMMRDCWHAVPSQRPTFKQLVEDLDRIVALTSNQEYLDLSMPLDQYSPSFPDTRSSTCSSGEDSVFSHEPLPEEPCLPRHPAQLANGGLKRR
Sequence of PRKCZ (human) (Q05513 whole entry, looked up): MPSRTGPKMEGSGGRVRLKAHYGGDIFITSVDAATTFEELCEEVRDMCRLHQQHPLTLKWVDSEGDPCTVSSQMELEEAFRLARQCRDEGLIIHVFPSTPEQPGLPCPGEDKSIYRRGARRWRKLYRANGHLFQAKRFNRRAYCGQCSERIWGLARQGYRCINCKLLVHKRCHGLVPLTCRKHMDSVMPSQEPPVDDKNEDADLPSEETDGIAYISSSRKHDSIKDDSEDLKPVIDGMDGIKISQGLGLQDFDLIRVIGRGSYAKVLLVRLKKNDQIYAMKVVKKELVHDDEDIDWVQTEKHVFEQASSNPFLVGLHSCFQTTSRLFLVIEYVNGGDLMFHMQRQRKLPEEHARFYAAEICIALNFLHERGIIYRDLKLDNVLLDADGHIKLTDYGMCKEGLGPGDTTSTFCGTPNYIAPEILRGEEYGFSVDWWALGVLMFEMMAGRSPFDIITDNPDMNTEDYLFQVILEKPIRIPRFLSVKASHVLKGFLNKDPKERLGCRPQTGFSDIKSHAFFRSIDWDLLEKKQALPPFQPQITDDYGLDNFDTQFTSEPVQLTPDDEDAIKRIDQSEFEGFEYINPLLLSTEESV
Sequence of AURKB (human) (Q96GD4 whole entry, looked up): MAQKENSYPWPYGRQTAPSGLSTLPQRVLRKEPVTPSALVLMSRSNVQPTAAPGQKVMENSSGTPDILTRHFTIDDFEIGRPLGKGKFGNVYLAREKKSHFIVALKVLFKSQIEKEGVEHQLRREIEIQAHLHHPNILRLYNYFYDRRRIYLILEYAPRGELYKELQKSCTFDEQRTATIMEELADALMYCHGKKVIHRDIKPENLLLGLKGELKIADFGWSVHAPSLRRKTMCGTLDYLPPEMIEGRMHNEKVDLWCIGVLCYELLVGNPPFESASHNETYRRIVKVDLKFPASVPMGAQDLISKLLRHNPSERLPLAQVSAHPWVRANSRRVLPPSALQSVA

residual activity [1]: 87% | residual activity [2]: 8% | residual activity ([3]; compound 1.0 µM): 72% | residual activity ([4]; compound 1.0 µM): 77% | residual activity ([5]; compound 1.0 µM): 92% | residual activity [6]: 77% | residual activity ([7]; compound 1.0 µM): 17% | residual activity [8]: 100% | residual activity [9]: 97% | residual activity ([10]; compound 1.0 µM): 84% | residual activity ([11]; compound 1.0 µM): 80% | residual activity ([12]; compound 1.0 µM): 92% | residual activity [13]: 40% | residual activity ([14]; compound 1.0 µM): 95% | residual activity ([15]; compound 1.0 µM): 101% | residual activity [16]: 74% | residual activity ([17]; compound 1.0 µM): 81% | residual activity ([18]; compound 1.0 µM): 85% | residual activity ([19]; compound 1.0 µM): 70% | residual activity [20]: 31% | residual activity [21]: 71% | residual activity [22]: 107% | residual activity [23]: 60% | residual activity [24]: 78% | residual activity [25]: 63% | residual activity ([26]; compound 1.0 µM): 75% | residual activity ([27]; compound 1.0 µM): 64% | residual activity ([28]; compound 1.0 µM): 79% | residual activity ([29]; compound 1.0 µM): 46% | residual activity ([30]; compound 1.0 µM): 80% | residual activity [31]: 97% | residual activity ([32]; compound 1.0 µM): 77% | residual activity ([33]; compound 1.0 µM): 91% | residual activity ([34]; compound 1.0 µM): 66% | residual activity ([35]; compound 1.0 µM): 83% | residual activity ([36]; compound 1.0 µM): 85% | residual activity ([37]; compound 1.0 µM): 5% | residual activity ([38]; compound 1.0 µM): 86% | residual activity [39]: 84% | residual activity ([40]; compound 1.0 µM): 85%
SMILES: Oc1ccc2c(c1)oc1c3ccccc3c(O)cc21

SMILES: COc1ccc2c(c1)[nH]c1c(C)nccc12
residual activity [1]: 111% | residual activity [2]: 10% | residual activity ([3]; compound 1.0 µM): 88% | residual activity ([4]; compound 1.0 µM): 87% | residual activity ([5]; compound 1.0 µM): 94% | residual activity [6]: 92% | residual activity ([7]; compound 1.0 µM): 31% | residual activity [8]: 136% | residual activity [9]: 100% | residual activity ([10]; compound 1.0 µM): 87% | residual activity ([11]; compound 1.0 µM): 87% | residual activity ([12]; compound 1.0 µM): 88% | residual activity [13]: 78% | residual activity ([14]; compound 1.0 µM): 97% | residual activity ([15]; compound 1.0 µM): 94% | residual activity [16]: 119% | residual activity ([17]; compound 1.0 µM): 94% | residual activity ([18]; compound 1.0 µM): 109% | residual activity ([19]; compound 1.0 µM): 77% | residual activity [20]: 95% | residual activity [21]: 95% | residual activity [22]: 104% | residual activity [23]: 69% | residual activity [24]: 93% | residual activity [25]: 75% | residual activity ([26]; compound 1.0 µM): 67% | residual activity ([27]; compound 1.0 µM): 81% | residual activity ([28]; compound 1.0 µM): 95% | residual activity ([29]; compound 1.0 µM): 106% | residual activity ([30]; compound 1.0 µM): 107% | residual activity [31]: 86% | residual activity ([32]; compound 1.0 µM): 103% | residual activity ([33]; compound 1.0 µM): 106% | residual activity ([34]; compound 1.0 µM): 81% | residual activity ([35]; compound 1.0 µM): 93% | residual activity ([36]; compound 1.0 µM): 73% | residual activity ([37]; compound 1.0 µM): 35% | residual activity ([38]; compound 1.0 µM): 135% | residual activity [39]: 105% | residual activity ([40]; compound 1.0 µM): 81%

residual activity ([3]; compound 20.0 µM): 25% | residual activity ([4]; compound 20.0 µM): 54% | residual activity ([5]; compound 20.0 µM): 74% | residual activity ([7]; compound 20.0 µM): 15% | residual activity ([10]; compound 20.0 µM): 86% | residual activity ([11]; compound 20.0 µM): 48% | residual activity ([12]; compound 20.0 µM): 93% | residual activity ([14]; compound 20.0 µM): 61% | residual activity ([15]; compound 20.0 µM): 94% | residual activity ([17]; compound 20.0 µM): 75% | residual activity ([18]; compound 20.0 µM): 70% | residual activity ([19]; compound 20.0 µM): 89% | residual activity ([26]; compound 20.0 µM): 46% | residual activity ([27]; compound 20.0 µM): 39% | residual activity ([28]; compound 20.0 µM): 64% | residual activity ([29]; compound 20.0 µM): 77% | residual activity ([30]; compound 20.0 µM): 64% | residual activity ([32]; compound 20.0 µM): 62% | residual activity ([33]; compound 20.0 µM): 99% | residual activity ([34]; compound 20.0 µM): 71% | residual activity ([35]; compound 20.0 µM): 70% | residual activity ([36]; compound 20.0 µM): 104% | residual activity ([37]; compound 20.0 µM): 69% | residual activity ([38]; compound 20.0 µM): 87% | residual activity ([40]; compound 20.0 µM): 94%
SMILES: Oc1ccc2c(c1)C(O)c1cc(O)ccc1-2
